Results taken from the supplement of paper PMC10627819.

Assays:
[1] = test system: S. pneumoniae D39V; experiment: fitness (endpoint OD595 vs no drug) (fraction); higher = more growth
Outline: (§1)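 Bacterial growth was followed in 384-well plates seeded at OD595 0.01, with 30 µl per well, or 55 µl for S. pneumoniae, in TSB, LB Lennox or CY at 37 °C. OD595 was read every 30 min for 14 h, and each reading had the first reading subtracted as background. Fitness is the background-corrected optical density at entry into stationary phase divided by the robust mean of the no-drug control wells. This ratio is capped at 1.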

[2] = test system: S. aureus Newman; experiment: as above
Outline: as §1

[3] = test system: S. aureus DSM 20231; experiment: as above
Outline: as §1

[4] = test system: S. pneumoniae D39V; experiment: Bliss interaction score (quartile over a dose matrix) (fitness difference); higher = more antagonism (negative = synergy)
Outline: (§2)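 Fitness was defined as normalised growth: OD595 at the start of stationary phase divided by the plate's robust no-drug mean and capped at 1. Single-drug fitness was inferred from combination measurements. The Bliss score is observed fitness minus the product of the single-drug values, summarised by quartiles across technical, biological and donor/recipient replicates.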

[5] = test system: S. aureus Newman; experiment: as above
Outline: as §2

[6] = test system: S. aureus DSM 20231; experiment: as above
Outline: as §2

[7] = test system: B. subtilis 168; experiment: as above
Outline: as §2
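Wherever Bliss interaction score (quartile over a dose matrix) is given: first quartile when negative (synergy) and third quartile when positive (antagonism).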

Cc1ncc([N+](=O)[O-])n1CCO [Metronidazole] + CN[C@H](CC(C)C)C(=O)N[C@H]1C(=O)N[C@@H](CC(N)=O)C(=O)N[C@H]2C(=O)N[C@H]3C(=O)N[C@H](C(=O)N[C@H](C(=O)O)c4cc(O)cc(O)c4-c4cc3ccc4O)[C@H](O)c3ccc(c(Cl)c3)Oc3cc2cc(c3O[C@@H]2O[C@H](CO)[C@@H](O)[C@H](O)[C@H]2O[C@H]2C[C@](C)(N)[C@H](O)[C@H](C)O2)Oc2ccc(cc2Cl)[C@H]1O [Vancomycin]
Settings | fitness
[1], first compound 1.073 µg/mL, partner 0.125 µg/mL | ≥ 1
[1], first compound 1.073 µg/mL, partner 0.5 µg/mL | 0.0194
[1], first compound 1.25 µg/mL, partner 0.03125 µg/mL | 0.992
[1], first compound 1.25 µg/mL, partner 0.0625 µg/mL | 0.959
[1], first compound 1.25 µg/mL, partner 0.125 µg/mL | 0.825
[1], first compound 2.145 µg/mL, partner 0.125 µg/mL | 0.895
[1], first compound 2.145 µg/mL, partner 0.5 µg/mL | 0.0439
[1], first compound 2.5 µg/mL, partner 0.03125 µg/mL | ≥ 1
[1], first compound 2.5 µg/mL, partner 0.0625 µg/mL | 0.966
[1], first compound 2.5 µg/mL, partner 0.125 µg/mL | 0.807
[1], first compound 4.29 µg/mL, partner 0.125 µg/mL | ≥ 1
[1], first compound 4.29 µg/mL, partner 0.5 µg/mL | 0.108
[1], first compound 5 µg/mL, partner 0.03125 µg/mL | 0.986
[1], first compound 5 µg/mL, partner 0.0625 µg/mL | 0.938
[1], first compound 5 µg/mL, partner 0.125 µg/mL | 0.792
[2], first compound 0.625 µg/mL, partner 0.1875 µg/mL | 0.987
[2], first compound 0.625 µg/mL, partner 0.375 µg/mL | ≥ 1
[2], first compound 0.625 µg/mL, partner 0.75 µg/mL | ≥ 1
[2], first compound 1.25 µg/mL, partner 0.1875 µg/mL | 0.968
[2], first compound 1.25 µg/mL, partner 0.375 µg/mL | ≥ 1
[2], first compound 1.25 µg/mL, partner 0.75 µg/mL | 0.953
[2], first compound 2.5 µg/mL, partner 0.1875 µg/mL | ≥ 1
[2], first compound 2.5 µg/mL, partner 0.375 µg/mL | ≥ 1
[2], first compound 2.5 µg/mL, partner 0.75 µg/mL | ≥ 1
[3], first compound 0.625 µg/mL, partner 0.1875 µg/mL | ≥ 1
[3], first compound 0.625 µg/mL, partner 0.375 µg/mL | ≥ 1
[3], first compound 0.625 µg/mL, partner 0.75 µg/mL | ≥ 1
[3], first compound 1.25 µg/mL, partner 0.1875 µg/mL | ≥ 1
[3], first compound 1.25 µg/mL, partner 0.375 µg/mL | ≥ 1
[3], first compound 1.25 µg/mL, partner 0.75 µg/mL | ≥ 1
[3], first compound 2.5 µg/mL, partner 0.1875 µg/mL | ≥ 1
[3], first compound 2.5 µg/mL, partner 0.375 µg/mL | 1
[3], first compound 2.5 µg/mL, partner 0.75 µg/mL | 0.995

fitness, [2], one replicate
Settings | first compound 0.781 µg/mL | first compound 1.562 µg/mL | first compound 3.124 µg/mL
partner 0.1875 µg/mL | ≥ 1 | ≥ 1 | 0.995
partner 0.375 µg/mL | ≥ 1 | 0.995 | 0.99
partner 0.75 µg/mL | ≥ 1 | 0.99 | ≥ 1

Settings | Bliss interaction score
[4] | 0.123
[5] | 0.0696
[6] | 0.033
[7] | 0.0651

Cc1ncc([N+](=O)[O-])n1CCO [Metronidazole] + Cn1nnc(-c2ccc(-c3ccc(N4C[C@H](CO)OC4=O)cc3F)cn2)n1 [Tedizolid]
fitness
Settings | partner 0.03125 µg/mL | partner 0.0625 µg/mL | partner 0.125 µg/mL | partner 0.25 µg/mL | partner 0.5 µg/mL
[1], first compound 1.073 µg/mL | – | – | 0.768 | 0.856 | –
[1], first compound 1.25 µg/mL | 0.959 | 0.98 | 0.831 | – | –
[1], first compound 2.145 µg/mL | – | – | 0.807 | 0.845 | 0.255
[1], first compound 2.5 µg/mL | 0.974 | 0.998 | 0.85 | – | –
[1], first compound 4.29 µg/mL | – | – | 0.814 | 0.838 | 0.259
[1], first compound 5 µg/mL | 0.958 | 0.971 | 0.85 | – | –
[2], first compound 0.625 µg/mL | – | 0.985 | 0.875 | 0.521 | –
[2], first compound 0.781 µg/mL | – | 0.954 | 0.861 | – | –
[2], first compound 1.25 µg/mL | – | 0.948 | 0.89 | 0.509 | –
[2], first compound 1.562 µg/mL | – | 0.951 | 0.88 | – | –
[2], first compound 2.5 µg/mL | – | 0.93 | 0.874 | – | –
[2], first compound 3.124 µg/mL | – | 0.957 | 0.866 | – | –
[3], first compound 0.625 µg/mL | – | 0.966 | 0.842 | – | –
[3], first compound 1.25 µg/mL | – | 0.91 | 0.839 | 0.552 | –
[3], first compound 2.5 µg/mL | – | 0.982 | 0.851 | – | –

Settings | Bliss interaction score
[4] | -0.0886
[5] | 0.105
[6] | 0.0997
[7] | -0.0352

COc1ccc(C[C@H](N)C(=O)N[C@H]2[C@@H](O)[C@H](n3cnc4c(N(C)C)ncnc43)O[C@@H]2CO)cc1 [Puromycin] + CN[C@H](CC(C)C)C(=O)N[C@H]1C(=O)N[C@@H](CC(N)=O)C(=O)N[C@H]2C(=O)N[C@H]3C(=O)N[C@H](C(=O)N[C@H](C(=O)O)c4cc(O)cc(O)c4-c4cc3ccc4O)[C@H](O)c3ccc(c(Cl)c3)Oc3cc2cc(c3O[C@@H]2O[C@H](CO)[C@@H](O)[C@H](O)[C@H]2O[C@H]2C[C@](C)(N)[C@H](O)[C@H](C)O2)Oc2ccc(cc2Cl)[C@H]1O [Vancomycin]
fitness
Settings | [1] | [2] | [3]
first compound 0.39 µg/mL, partner 0.1875 µg/mL | – | ≥ 1 | ≥ 1
first compound 0.39 µg/mL, partner 0.375 µg/mL | – | 0.996 | 0.986
first compound 0.39 µg/mL, partner 0.75 µg/mL | – | ≥ 1 | ≥ 1
first compound 0.78 µg/mL, partner 0.1875 µg/mL | – | ≥ 1 | ≥ 1
first compound 0.78 µg/mL, partner 0.375 µg/mL | – | 0.994 | ≥ 1
first compound 0.78 µg/mL, partner 0.75 µg/mL | – | 0.979 | ≥ 1
first compound 1 µg/mL, partner 0.03125 µg/mL | 0.999 | – | –
first compound 1 µg/mL, partner 0.0625 µg/mL | 0.989 | – | –
first compound 1 µg/mL, partner 0.125 µg/mL | 0.8 | – | –
first compound 1.56 µg/mL, partner 0.1875 µg/mL | – | ≥ 1 | ≥ 1
first compound 1.56 µg/mL, partner 0.375 µg/mL | – | 0.978 | ≥ 1
first compound 1.56 µg/mL, partner 0.75 µg/mL | – | 0.999 | ≥ 1
first compound 2 µg/mL, partner 0.03125 µg/mL | 0.985 | – | –
first compound 2 µg/mL, partner 0.0625 µg/mL | 0.969 | – | –
first compound 2 µg/mL, partner 0.125 µg/mL | 0.849 | – | –
first compound 4 µg/mL, partner 0.03125 µg/mL | 0.808 | – | –
first compound 4 µg/mL, partner 0.0625 µg/mL | 0.822 | – | –

one replicate
Settings | fitness
[1], first compound 1 µg/mL, partner 0.25 µg/mL | 0.088
[1], first compound 1 µg/mL, partner 0.5 µg/mL | 0.0805
[1], first compound 2 µg/mL, partner 0.25 µg/mL | 0.223
[1], first compound 2 µg/mL, partner 0.5 µg/mL | 0.125
[1], first compound 4 µg/mL, partner 0.25 µg/mL | 0.141
[1], first compound 4 µg/mL, partner 0.5 µg/mL | 0.121
[3], first compound 3.12 µg/mL, partner 0.1875 µg/mL | ≥ 1
[3], first compound 3.12 µg/mL, partner 0.375 µg/mL | 0.915
[3], first compound 3.12 µg/mL, partner 0.75 µg/mL | 0.922
[3], first compound 6.24 µg/mL, partner 0.1875 µg/mL | 0.642
[3], first compound 6.24 µg/mL, partner 0.375 µg/mL | 0.737
[3], first compound 6.24 µg/mL, partner 0.75 µg/mL | 0.716

Settings | Bliss interaction score
[4] | -0.0711
[5] | 0.0575
[6] | 0.0659
[7] | -0.0411

COc1ccc(C[C@H](N)C(=O)N[C@H]2[C@@H](O)[C@H](n3cnc4c(N(C)C)ncnc43)O[C@@H]2CO)cc1 [Puromycin] + Cn1nnc(-c2ccc(-c3ccc(N4C[C@H](CO)OC4=O)cc3F)cn2)n1 [Tedizolid]
fitness
Settings | partner 0.03125 µg/mL | partner 0.0625 µg/mL | partner 0.125 µg/mL | partner 0.25 µg/mL
[1], first compound 1 µg/mL | 0.967 | 0.966 | 0.787 | –
[1], first compound 2 µg/mL | 0.958 | 0.935 | 0.78 | –
[1], first compound 4 µg/mL | 0.819 | 0.828 | 0.756 | –
[2], first compound 0.39 µg/mL | – | 0.987 | 0.884 | 0.479
[2], first compound 0.78 µg/mL | – | 0.935 | 0.834 | 0.404
[2], first compound 1.56 µg/mL | – | 0.942 | 0.829 | 0.304
[3], first compound 0.39 µg/mL | – | 0.879 | 0.7 | 0.24
[3], first compound 0.78 µg/mL | – | 0.831 | 0.794 | 0.267
[3], first compound 1.56 µg/mL | – | 0.827 | – | 0.157

fitness, one replicate
Settings | partner 0.0625 µg/mL | partner 0.125 µg/mL | partner 0.25 µg/mL | partner 0.5 µg/mL
[1], first compound 1 µg/mL | – | – | 0.652 | 0.184
[1], first compound 2 µg/mL | – | – | 0.686 | 0.284
[1], first compound 4 µg/mL | – | – | 0.499 | 0.234
[3], first compound 3.12 µg/mL | 0.503 | 0.148 | 0.0225 | –
[3], first compound 6.24 µg/mL | 0.224 | 0.0566 | 0.0172 | –

Settings | Bliss interaction score
[4] | -0.1
[5] | 0.0352
[6] | -0.0959
[7] | -0.0598
